Where a name gives a salt, the structure may show the parent alone.
Tested on: M173
Conditions: not given

| Compound | Compatibility |
| --- | --- |
| O=P([O-])(O)O.[K+] | Compatible |
| N.N.O=S(=O)(O)O [Ammonium sulfate] | Compatible |
| COC(=O)Nc1nc2ccccc2[nH]1 [Carbendazim] | Compatible |
| N#Cc1c(Cl)c(Cl)c(Cl)c(C#N)c1Cl [Chlorothalonil] | Compatible |
| CN/C(=N/CC1CCOC1)N[N+](=O)[O-] (stereo not shown) [Dinotefuran] | Compatible |
| O=[N+]([O-])c1cc(C(F)(F)F)c(Cl)c([N+](=O)[O-])c1Nc1ncc(C(F)(F)F)cc1Cl [Fluazinam] | Compatible |
| CCO[PH](=O)O [Fosetyl-aluminum] | Compatible |
| CC1(C)[C@H](C(=O)O[C@H](C#N)c2cccc(Oc3ccccc3)c2)[C@@H]1/C=C(\Cl)C(F)(F)F [Gamma-cyhalothrin] | Compatible |
| COCC(=O)N(c1c(C)cccc1C)[C@H](C)C(=O)OC [Metalaxyl-M] | Compatible |
| CCCOC(=O)NCCCN(C)C [Propamocarb hydrochloride] | Compatible |
| O=[N+]([O-])c1c(Cl)c(Cl)c(Cl)c(Cl)c1Cl [Quintozene] | Compatible |
| CN1COCN(Cc2cnc(Cl)s2)/C1=N\[N+](=O)[O-] [Thiamethoxam] | Compatible |
| CN(C)C(=S)SSC(=S)N(C)C [Thiram] | Compatible |
| NC(N)=O [Urea] | Compatible |

Tested on: Ralstonia solanacearum R.s (MN R.s1)
Format: in vivo
Conditions: tomato seedlings, roots soaked 10 min, R.s irrigated after 7 d

| Compound | Control effect/% | Disease index/% | Morbidity/% |
| --- | --- | --- | --- |
| neophytomycin [Positive control group] | 37.30% | 14.00% | 16.70% |

Tested on: Ralstonia solanacearum MN R.s1 strain
Format: in vivo
Conditions: tomato seedlings, leaf cutting with scissors soaked in agent + R.s suspension, 7 d at 30° C.

| Compound | Mortality/% |
| --- | --- |
| neophytomycin [Positive control group] | 16.67% |

Same assay, conditions: tomato seedlings, leaf cutting, relative to negative control

| Compound | Relative control effect/% |
| --- | --- |
| neophytomycin [Positive control group] | 81.01% |
